For experiment [1], the target named is T1, VLA-4 (α4β1 integrin) binding to immobilized VCAM-1 (Homo sapiens, UniProt P05556+P13612).
T1 construct: followed by 10 μl of Ramos cell-derived VLA-4; endogenous in cells; host or cells: Ramos cells (VLA-4 preparation derived from the cells)
The experiment in a line: VLA-4/VCAM-1 Screening Assay (solid-phase, dual antibody ELISA). The protocol: VLA-4 antagonist activity, defined as ability to compete for binding to immobilized VCAM-1 was quantitated using a solid-phase, dual antibody ELISA. VLA-4 (α4β1 integrin) bound to VCAM-1 was detected by a complex of anti-integrin β1 antibody: HRP-conjugated anti-mouse IgG: chromogenic substrate (K-Blue). Initially, this entailed coating 96 well plates (Nunc Maxisorp) with recombinant human VCAM-1 (0.4 μg in 100 μl PBS), sealing each plate and then allowing the plates to stand at 4° C for Å18 hr. […] On the day of assay, all plates were washed twice with VCAM Assay Buffer (200 μl/well of 50 mM Tris-HCl, 100 mM NaCl, 1 mM MnCl2, 0.05% Tween 20; pH 7.4). Test compounds were dissolved in 100% DMSO and then diluted 1:20 in VCAM Assay Buffer supplemented with 1 mg/mL BSA (i.e., final DMSO=5%). […] 100 μl per well of each dilution was added to the VCAM-coated plates, followed by 10 μl of Ramos cell-derived VLA-4. These plates were sequentially mixed on a platform shaker for 1 min, incubated for 2 hr at 37° C. and then washed four times with 200 μl/well VCAM Assay Buffer. 100 μl of mouse anti-human integrin β1 antibody was added to each well (0.6 μg/mL in VCAM Assay Buffer+1 mg/mL BSA) and allowed to incubate for 1 hr at 37° C. At the conclusion of this incubation period, all plates were washed four times with VCAM Assay Buffer (200 μl/well). A corresponding second antibody, HRP-conjugated goat anti-mouse IgG (100 μl per well @1:800 dilution in VCAM Assay Buffer+1 mg/mL BSA), was then added to each well, followed by a 1 hr incubation at room temperature and concluded by three washes (200 μl/well) with VCAM Assay Buffer. Color development was initiated by addition of 100 μl K-Blue per well (15 min incubation, room temp) and terminated by addition of 100 μl Red Stop Buffer per well. […] Results were calculated as % inhibition of total binding (i.e., VLA-4+VCAM-1 in the absence of test compound).

Experiment [2] addresses T2, cell-surface VLA-4 (α4β1 integrin) on Ramos cells binding to immobilized VCAM-1 (Homo sapiens, UniProt P05556+P13612).
T2 construct: Ramos cells bearing cell-surface VLA-4; endogenous in cells; host or cells: Ramos cells (VLA-4); VCAM-1 purified from CHO cell culture media
Briefly: Ramos (VLA-4)/VCAM-1 Cell-Based Screening Assay (cell adhesion). An excerpt: Calcein-AM was purchased from Molecular Probes Inc.
VLA-4 (α4β1 integrin) antagonist activity, defined as ability to compete with cell-surface VLA-4 for binding to immobilized VCAM-1, was quantitated using a Ramos-VCAM-1 cell adhesion assay. Ramos cells bearing cell-surface VLA-4, were labeled with a fluorescent dye (Calcein-AM) and allowed to bind VCAM-1 in the presence or absence of test compounds.
Initially, this entailed coating 96 well plates (Nunc Maxisorp) with recombinant human VCAM-1 (100 ng in 100 μl PBS), sealing each plate and allowing the plates to stand at 4° C for Å18 hr. The VCAM-coated plates were subsequently washed twice with 0.05% Tween-20 in PBS, and then blocked for 1hr (room temperature) with 200 μl of Blocking Buffer (1% BSA/0.02% thimerosal) to reduce non-specific binding. Following the incubation with Blocking Buffer, plates were inverted, blotted and the remaining buffer aspirated. Each plate was then washed with 300 μl PBS, inverted and the remaining PBS aspirated.
Test compounds were dissolved in 100% DMSO and then diluted 1:25 in VCAM Cell Adhesion Assay Buffer (4 mM CaCl2, 4 mM MgCl2 in 50 mM TRIS-HCl, pH 7.5) (final DMSO=4%). […] 100 μl/well of each dilution was added to the VCAM-coated plates, followed by 100 μl of Ramos cells (200,000 cells/well in 1% BSA/PBS). […] Plates were inverted to remove non-adherent cells, blotted and 300 μl/well PBS added. Plates were again inverted, blotted and the remaining buffer gently aspirated. 100 μl Lysis Buffer (0.1% SDS in 50 mM TRIS-HCl, pH 8.5) was added to each well and agitated for 2 min on a rotary shaking platform.

Setting [3] is: Ramos cell-derived VLA-4, recombinant human VCAM-1 coated plates, 2 hr at 37° C., read-out: IC50.
The mark [4] stands for this setting: Calcein-AM labeled Ramos cells, VCAM-1 coated plates, 45 min at room temperature, read-out: IC50 in Ramos Cell Based Assay.
[5] abbreviates: IC50 nM, Ramos cell-derived VLA-4, recombinant human VCAM-1 coated plates, 2 hr at 37° C.
Setting [6] is: IC50 in Ramos Cell Based Assay (nM), Calcein-AM labeled Ramos cells, VCAM-1 coated plates, 45 min at room temperature.

Where two headings read alike, the source gives them in different places.

In general, IC50 refers to the concentration needed to halve the response being measured.

T1 sequence (P13612 34-1032): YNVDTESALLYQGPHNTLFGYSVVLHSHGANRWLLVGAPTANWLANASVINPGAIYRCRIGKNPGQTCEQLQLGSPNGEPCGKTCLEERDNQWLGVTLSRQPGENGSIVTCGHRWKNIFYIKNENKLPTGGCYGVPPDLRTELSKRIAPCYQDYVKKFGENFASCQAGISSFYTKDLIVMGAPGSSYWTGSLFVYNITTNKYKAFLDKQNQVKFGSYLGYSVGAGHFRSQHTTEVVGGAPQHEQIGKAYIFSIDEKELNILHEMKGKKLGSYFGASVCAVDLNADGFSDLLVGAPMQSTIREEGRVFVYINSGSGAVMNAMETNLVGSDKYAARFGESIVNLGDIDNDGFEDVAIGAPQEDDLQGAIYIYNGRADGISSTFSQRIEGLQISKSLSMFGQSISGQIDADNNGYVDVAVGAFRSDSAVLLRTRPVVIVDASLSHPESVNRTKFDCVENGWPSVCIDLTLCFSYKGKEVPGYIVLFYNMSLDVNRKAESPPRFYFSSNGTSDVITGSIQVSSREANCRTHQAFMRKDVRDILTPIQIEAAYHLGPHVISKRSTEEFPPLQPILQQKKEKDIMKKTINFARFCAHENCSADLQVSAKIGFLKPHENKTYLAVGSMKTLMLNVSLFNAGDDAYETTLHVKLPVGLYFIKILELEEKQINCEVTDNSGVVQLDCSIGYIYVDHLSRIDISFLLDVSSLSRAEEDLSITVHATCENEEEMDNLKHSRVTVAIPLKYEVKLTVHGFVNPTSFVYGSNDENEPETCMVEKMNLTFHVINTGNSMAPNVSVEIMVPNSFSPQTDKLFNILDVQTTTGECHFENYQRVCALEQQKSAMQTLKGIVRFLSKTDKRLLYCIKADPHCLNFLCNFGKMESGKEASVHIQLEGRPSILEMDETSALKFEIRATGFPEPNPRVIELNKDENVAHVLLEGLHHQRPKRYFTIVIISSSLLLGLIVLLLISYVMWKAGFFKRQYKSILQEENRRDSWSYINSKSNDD
T1 sequence (P05556 21-798): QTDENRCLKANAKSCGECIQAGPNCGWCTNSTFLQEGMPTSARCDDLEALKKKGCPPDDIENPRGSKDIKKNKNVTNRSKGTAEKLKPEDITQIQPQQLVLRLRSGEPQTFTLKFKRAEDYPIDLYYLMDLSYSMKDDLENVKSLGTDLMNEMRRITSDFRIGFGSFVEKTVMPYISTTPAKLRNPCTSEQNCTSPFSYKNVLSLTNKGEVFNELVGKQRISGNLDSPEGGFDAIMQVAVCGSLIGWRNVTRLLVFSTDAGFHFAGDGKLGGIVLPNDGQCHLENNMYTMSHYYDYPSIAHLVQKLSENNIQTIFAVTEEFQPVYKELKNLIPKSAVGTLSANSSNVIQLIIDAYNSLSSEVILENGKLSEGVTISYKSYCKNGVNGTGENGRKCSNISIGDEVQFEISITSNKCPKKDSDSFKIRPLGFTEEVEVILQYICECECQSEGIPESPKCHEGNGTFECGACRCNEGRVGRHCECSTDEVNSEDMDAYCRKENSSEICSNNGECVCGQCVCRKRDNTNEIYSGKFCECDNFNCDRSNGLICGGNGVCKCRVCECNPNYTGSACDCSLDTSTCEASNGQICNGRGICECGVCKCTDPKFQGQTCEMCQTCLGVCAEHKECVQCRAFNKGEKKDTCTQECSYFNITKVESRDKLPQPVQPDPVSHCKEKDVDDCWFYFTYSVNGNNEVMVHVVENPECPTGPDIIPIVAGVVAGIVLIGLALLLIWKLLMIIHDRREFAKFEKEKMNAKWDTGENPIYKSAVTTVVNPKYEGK
T2 sequence (P13612 34-1032): as the sequence (P13612 34-1032) above
T2 sequence (P05556 21-798): as the sequence (P05556 21-798) above

As for `CNC(=O)NCCC1(C(=O)N[C@@H](Cc2ccc(NC(=O)c3c(Cl)cccc3Cl)cc2)C(=O)O)CCCC1` [Example 187, 4-[[(2,6-Dichlorophenyl)carbonyl]amino]-N-[[1-[2-[[(methylamino)carbonyl]amino]ethyl]cyclopentyl]carbonyl]-L-phenylalanine], the half-inhibitory concentration (IC50) in experiment [1] (setting [3]) is 0.26 nM; in experiment [2] (setting [4]), 5.7 nM.
As for `CC(=O)NCCCCC1(C(=O)N[C@@H](Cc2ccc(NC(=O)c3c(Cl)cccc3Cl)cc2)C(=O)O)CCCC1` [Example 259], the half-maximal inhibitory concentration (IC50) in experiment [1] (setting [5]) is 3.6 nM; in experiment [2] (setting [6]) it was 129 nM.
For `N#CCC1(C(=O)N[C@@H](Cc2ccc(NC(=O)c3c(Cl)cccc3Cl)cc2)C(=O)O)CCCC1` [Example 272], the half-inhibitory concentration (IC50) in experiment [1] (setting [3]) was 1 nM; in experiment [2] (setting [6]) it was 96 nM.
Taken in the same sequence, the figures for `[N-]=[N+]=NCCC1(C(=O)N[C@@H](Cc2ccc(NC(=O)c3c(Cl)cccc3Cl)cc2)C(=O)O)CCCC1` [Example 58] were 0.58 nM and 47 nM.
Consider `CSCCC1(C(=O)N[C@@H](Cc2ccc(NC(=O)c3c(Cl)cccc3Cl)cc2)C(=O)O)CCCC1` [Example 249], for which the concentration for half-maximal inhibition (IC50) in experiment [1] (setting [5]) is 0.29 nM; in experiment [2] (setting [6]), 62 nM.
With `NCC(=O)NCCC1(C(=O)N[C@@H](Cc2ccc(NC(=O)c3c(Cl)cccc3Cl)cc2)C(=O)O)CCCC1` [Example 217, 4-[[(2,6-dichlorophenyl)carbonyl]amino]-N-[[1-[2-[(2-amino-1-oxoethyl)amino]ethyl]yclopentyl]carbonyl]-L-phenylalanine], the IC50 was 2 nM in experiment [1] (setting [3]) and 211 nM in experiment [2] (setting [4]).
For the compound `CC(C)(C)OC(=O)NCCC1(C(=O)N[C@@H](Cc2ccc(NC(=O)c3c(Cl)cccc3Cl)cc2)C(=O)O)CCCC1` [Example 254], the IC50 in experiment [1] (setting [3]) is 2 nM; in experiment [2] (setting [4]), 360 nM.
For the compound `COc1ccc(C(=O)NCCC2(C(=O)N[C@@H](Cc3ccc(NC(=O)c4c(Cl)cccc4Cl)cc3)C(=O)O)CCCC2)cc1` [Example 257], the IC50 is 40 nM in experiment [1] (setting [5]) and 635 nM in experiment [2] (setting [6]).
Taken in the same sequence, the figures for `O=C(Nc1ccc(C[C@H](NC(=O)C2(CCN3CCOCC3)CCCC2)C(=O)O)cc1)c1c(Cl)cccc1Cl` [Example 256] were 2.4 nM and 151 nM.
Take `NCCC1(C(=O)N[C@@H](Cc2ccc(NC(=O)c3c(Cl)cccc3Cl)cc2)C(=O)O)CCCC1` [Example 252]: the values for the concentration for half-maximal inhibition (IC50) in experiment [1] (setting [5]) and in experiment [2] (setting [6]) were 5.1 nM and 228 nM, respectively.
Consider `Cn1nnnc1-c1ccc(CC2(C(=O)N[C@@H](Cc3ccc(NC(=O)c4c(Cl)cccc4Cl)cc3)C(=O)O)CCCC2)cc1` [Example 55], for which the 50% inhibitory concentration (IC50) in experiment [1] (setting [5]) is 0.47 nM; in experiment [2] (setting [4]), 18.5 nM.
On the same counts, the results for `COCCCCC1(C(=O)N[C@@H](Cc2ccc(NC(=O)c3c(Cl)cccc3Cl)cc2)C(=O)O)CCCC1` [Example 250] are 0.32 nM and 28 nM.
For `C/N=C(\S)NCCC1(C(=O)N[C@@H](Cc2ccc(NC(=O)c3c(Cl)cccc3Cl)cc2)C(=O)O)CCCC1` [Example 192], the figures for the IC50 in experiment [1] (setting [5]) and in experiment [2] (setting [6]) were 0.14 nM and 22 nM, respectively.
Turning to `Cn1nnnc1-c1cccc(CC2(C(=O)N[C@@H](Cc3ccc(NC(=O)c4c(Cl)cccc4Cl)cc3)C(=O)O)CCC2)c1` [Example 56], the concentration for half-maximal inhibition (IC50) in experiment [1] (setting [3]) was 0.94 nM; in experiment [2] (setting [4]) it was 31.5 nM.
Taken in the same sequence, the figures for `COc1ccc(CC2(C(=O)N[C@@H](Cc3ccc(NC(=O)c4c(Cl)cccc4Cl)cc3)C(=O)O)CCCC2)cc1` [Example 43, 4-[[(2,6-Dichlorophenyl)carbonyl]amino]-N-[[1-[(4-methoxyphenyl)methyl]cyclopentyl]carbonyl]-L-phenylalanine] were 0.63 nM and 36.5 nM.
`CC(C)(C)OC(=O)NCC(=O)NCCC1(C(=O)N[C@@H](Cc2ccc(NC(=O)c3c(Cl)cccc3Cl)cc2)C(=O)O)CCCC1` [Example 216, 4-[[(2,6-dichlorophenyl)carbonyl]amino]-N-[[1-[2-[[2-[[(1,1-dimethylethoxy)carbonyl]amino]-1-oxoethyl]amino]ethyl]cyclopentyl]carbonyl]-L-phenylalanine]: the IC50 in experiment [1] (setting [3]) was 2.9 nM; in experiment [2] (setting [4]), 356 nM.
Taken in the same sequence, the figures for `COC(=O)N(C)CCC1(C(=O)N[C@@H](Cc2ccc(NC(=O)c3c(Cl)cccc3Cl)cc2)C(=O)O)CCCC1` [Example 202, 4-[[(2,6-Dichlorophenyl)carbonyl]amino]-N-[[1-[2-[(methoxycarbonyl)(methyl)amino]ethyl]cyclopentyl]carbonyl]-L-phenylalanine] were 1 nM and 31 nM.
On the same counts, the results for `COC(=O)CCC(=O)NCCC1(C(=O)N[C@@H](Cc2ccc(NC(=O)c3c(Cl)cccc3Cl)cc2)C(=O)O)CCCC1` [Example 163] are 2.4 nM and 85 nM.
With `C=CCCC1(C(=O)N[C@@H](Cc2ccc(NC(=O)c3c(Cl)cccc3Cl)cc2)C(=O)O)CCCC1` [Example 271], the IC50 was 0.55 nM in experiment [1] (setting [5]) and 67 nM in experiment [2] (setting [4]).
With `O=C(Nc1ccc(C[C@H](NC(=O)C2(CCCCO)CCCC2)C(=O)O)cc1)c1c(Cl)cccc1Cl` [Example 255], the IC50 in experiment [1] (setting [5]) was 0.5 nM; in experiment [2] (setting [6]), 27 nM.
Turning to `COC(=O)NCCC1(C(=O)N[C@@H](Cc2ccc(NC(=O)c3c(Cl)cccc3Cl)cc2)C(=O)O)CCCC1` [Example 193], the concentration for half-maximal inhibition (IC50) in experiment [1] (setting [3]) was 0.55 nM; in experiment [2] (setting [4]), 40 nM.
For the compound `O=C(NCCC1(C(=O)N[C@@H](Cc2ccc(NC(=O)c3c(Cl)cccc3Cl)cc2)C(=O)O)CCCC1)c1ccncc1` [Example 160], the IC50 in experiment [1] came to 5.8 nM; in experiment [2], 328 nM.
For `Cn1nnnc1-c1ccc(CC2(C(=O)N[C@@H](Cc3ccc(NC(=O)c4c(Cl)cccc4Cl)cc3)C(=O)O)CCC2)cc1` [Example 57], the half-inhibitory concentration (IC50) in experiment [1] (setting [5]) is 0.42 nM; in experiment [2] (setting [6]) it was 27 nM.
`O=C(Nc1ccc(C[C@H](NC(=O)C2(CCNC(=O)C3CCCN3C(=O)C(F)(F)F)CCCC2)C(=O)O)cc1)c1c(Cl)cccc1Cl` (some centres unmarked) [Example 159]: the IC50 was 6.4 nM in experiment [1] (setting [3]) and 313 nM in experiment [2] (setting [4]).
Take `CC(=O)N(C)CCC1(C(=O)N[C@@H](Cc2ccc(NC(=O)c3c(Cl)cccc3Cl)cc2)C(=O)O)CCCC1` [Example 200, 4-[[(2,6-Dichlorophenyl)carbonyl]amino]-N-[[1-[2-[(acetyl)(methyl)amino]ethyl]cyclopentyl]carbonyl]-L-phenylalanine]: the IC50 in experiment [1] (setting [3]) is 0.81 nM; in experiment [2] (setting [4]) it was 19 nM.
Taken in the same sequence, the figures for `COCC(=O)NCCC1(C(=O)N[C@@H](Cc2ccc(NC(=O)c3c(Cl)cccc3Cl)cc2)C(=O)O)CCCC1` [Example 162] were 1.2 nM and 23 nM.
On to `O=C(NCCC1(C(=O)N[C@@H](Cc2ccc(NC(=O)c3c(Cl)cccc3Cl)cc2)C(=O)O)CCCC1)c1cccc(C(F)(F)F)c1` [Example 258], for which the figures for the concentration for half-maximal inhibition (IC50) in experiment [1] (setting [5]) and in experiment [2] (setting [6]) were 14 nM and 1030 nM, respectively.
As to `COc1ccc(CC2(C(=O)N[C@@H](Cc3ccc(NC(=O)c4c(Cl)cccc4Cl)cc3)C(=O)O)CCCC2)cc1` [Example 95], the IC50 in experiment [1] (setting [3]) was 0.69 nM; in experiment [2] (setting [4]), 34.5 nM.

Source of the values: patent publication US6455550B1, “N-alkanoylphenylalanine derivatives” (Hoffmann-La Roche Inc., priority 1997, dated 2002).
